Columns and labels:
[1] = Acute toxicity in rats; conditions: in vivo, male rat, dihydrochloride
Protocol: (§1) The acute toxicity of the N-(2-guanidinoethyl)-5-isoquinolinesulfonamide dihydrochloride was measured by giving male ddY-strain mouse and rat an intravenous administration and an oral administration.

[2] = Acute toxicity in mice; conditions: in vivo
Protocol: as §1
The acute toxicity of the hydrochloric acid salt of other compounds was measured by giving male ddY-strain mice an intravenous administration.

[3] = test system: vertebral artery; experiment: Effect on blood flow volume in vertebral artery of anesthetized dogs; assay type: in vivo, dog of mixed breed; conditions: intravenous
Protocol: (§2) The effect of the isoquinolinesulfonamide derivatives and the pharmaceutically acceptable acid addition salts of this invention on the vasodilatation of the femoral and vertebral arteries can be measured by anesthetizing a dog of mixed breed weighing 8 to 15 Kg by an intravenous administration of 35 mg/Kg of pentbarbital, providing an acute type probe (a product of Nippon Koden K.K., Japan) with the femoral and vertebral arteries, administering the isoquinolinesulfonamide derivatives and the pharmaceutically acceptable acid addition salts to the femoral vein through a polyethylene tube inserted into the femoral vein side chain and measuring the blood flow volume with an electromagnetic flowmeter (a product of Nippon Koden K.K., Japan, "MFV-1200"). 1 mg/Kg of N-(2-guanidinoethyl)-5-isoquinolinesulfonamide, i.e., Compound (2) was intravenously administered, the increased blood flow volumes in the vertebral artery and in the femoral artery were 95% and 37%. And the duration time is more than 30 minutes.
(§3) The effect on the vasodilatation of the femoral and vertebral arteries was measured by anesthetizing a dog of mixed breed weighing 8 to 15 Kg by an intravenous administration of 35 mg/Kg of pentbarbital, providing an acute type probe (a product of Nippon Koden K.K., Japan) with the femoral and vertebral arteries, administering to the femoral vein through a polyethylene tube inserted into the femoral vein side chain, measuring the blood flow volume with an electromagnetic blood flowmeter (a product of Nippon Koden K.K., Japan, "MFV-1200") and measuring the change of blood pressure.

[4] = Hypotensive action (change of blood pressure) in anesthetized dogs; assay type: in vivo, dog of mixed breed; conditions: intravenous
Protocol: as §3

[5] = test system: mesenteric artery; experiment: Relaxation of rabbit mesenteric artery contracted with KCl (isolated helical strip); assay type: cell-based; conditions: Oryctolagus cuniculus; concentration for 50% relaxation (complete relaxation = 100%); KCl 15-20 mM contraction; read-out: Relaxation of Mesenteric Artery ED50
Protocol: When, for example, N-(2-guanidinoethyl)-5-isoquinolinesulfonamide, i.e., compound (2) was added and a complete relaxation was designated 100%, the concentration which could bring about a relaxation of 50%, i.e., ED50 was 1 μM.
After a home bred rabbit of a Japanese species weighing about 3 Kg was subjected to bloodletting, resulting in death and then to abdominal incision, the mesenteric artery was taken out, cut into helicoids of 2 mm×25 mm and suspended in a 20 ml organ bath filled with a Krebs-Henseleit solution into which a mixed gas of 95% by volume of O2 and 5% by volume of CO2 was introduced and one end of the artery was connected with an isometric transducer. When a load of 1.5 g was applied to the artery, the contraction and the relaxation of the artery were recorded as a weight on the transducer (a product of Nippon Koden K.K., Japan, "FD Pickup TB-912T"). The relaxation of the mesenteric artery was observed by adding the isoquinolinesulfonamide derivatives and their pharmaceutically acceptable acid addition salts of this invention to the mesenteric artery at the condition of about one half of the maximum contraction with KCl concentration of 15-20 mM. When the complete relaxation of the mesenteric artery was designated 100%, the concentration of the isoquinolinesulfonamide derivatives and their pharmaceutically acceptable acid addition salts which brought about a relaxation of 50% is shown in Table 26.

[6] = test system: femoral artery; experiment: Effect on blood flow volume in femoral artery of anesthetized dogs; assay type: in vivo, dog of mixed breed; conditions: intravenous
Protocol: as §2, §3

[7] = test system: femoral and vertebral arteries; experiment: Duration time of effect in anesthetized dogs (blood flow volume / blood pressure); assay type: in vivo, dog of mixed breed; conditions: intravenous
Protocol: as §2, §3

[8] = mouse, intravenous administration, male ddY-strain mice, hydrochloric acid salt

## Cl.Cl.N=C(N)NCCNS(=O)(=O)c1cccc2cnccc12 [N-(2-guanidinoethyl)-5-isoquinolinesulfonamide dihydrochloride]
[1]; intravenous administration
  LD50: 64 mg/kg
[1]; oral administration
  LD50: 1160 mg/kg
[2]; intravenous administration, male mouse, dihydrochloride
  LD50: 59 mg/kg
[2]; oral administration, male mouse, dihydrochloride
  LD50: 1480 mg/kg

## N=C(N)N1CCN(S(=O)(=O)c2cccc3cnccc23)CC1 [Compound 44, 4-Amidino-1-(5-isoquinolinesulfonyl)piperazine]
[3]; 0.5 (mm/Kg [sic])
  Increased Blood Flow Volume in Vertebral Artery: 60%
[4]; 0.5 (mm/Kg [sic])
  Average Decreased Blood Pressure: 50 mmHg
[5]
  EC50: 0.6 µM
[2]; [8]
  LD50: 12 mg/kg
[6]; 0.5 (mm/Kg [sic])
  Increased Blood Flow Volume in Femoral Artery: 29%
[7]; 0.5 (mm/Kg [sic])
  Duration Time: > 30 min

## N=C(N)NCC(CNS(=O)(=O)c1cccc2cnccc12)c1ccccc1 (stereo not drawn) [Compound 31, N-(3-Guanidino-2-phenylpropyl)-5-isoquinolinesulfonamide]
[3]; 1 mg/Kg (mm/Kg [sic])
  Increased Blood Flow Volume in Vertebral Artery: 75%
[4]; 1 (mm/Kg [sic])
  Average Decreased Blood Pressure: 15 mmHg
[5]
  EC50: 2 µM
[2]; [8]
  LD50: 80 mg/kg
[6]; 1 mg/Kg (mm/Kg [sic])
  Increased Blood Flow Volume in Femoral Artery: 30%
[7]; 1 mg/Kg (mm/Kg [sic])
  Duration Time: 28 min

## O=S(=O)(NCCNC1=NCCN1)c1cccc2cnccc12 [Compound 50, 2-[2-(5-Isoquinolinesulfonamido)ethylaminol]-2-imidazoline]
[3]; 1 mg/Kg (mm/Kg [sic])
  Increased Blood Flow Volume in Vertebral Artery: 65%
[4]; 1 (mm/Kg [sic])
  Average Decreased Blood Pressure: 10 mmHg
[5]
  EC50: 20 µM
[6]; 1 mg/Kg (mm/Kg [sic])
  Increased Blood Flow Volume in Femoral Artery: 19%
[7]; 1 mg/Kg (mm/Kg [sic])
  Duration Time: 21 min

## N=C(N)NCCCCCNS(=O)(=O)c1cccc2cnccc12 [Compound 5, N-(5-Guanidinopentyl)-5-isoquinolinesulfonamide]
[5]
  EC50: 3 µM

## CN=C(NC)NCCNS(=O)(=O)c1cccc2cnccc12 [Compound 53, N-[2-(2,3-Dimethylguanidino)ethyl]-5-isoquinolinesulfonamide]
[5]
  EC50: 10 µM

## N=C(N)NCCNS(=O)(=O)c1cccc2cnccc12 [Compound 2, N-(2-Guanidinoethyl)-5-isoquinolinesulfonamide]
[3]; 1 mg/Kg (mm/Kg [sic])
  Increased Blood Flow Volume in Vertebral Artery: 95%
[4]; 1 (mm/Kg [sic])
  Average Decreased Blood Pressure: 32 mmHg
[5]
  EC50: 1 µM
[6]; 1 mg/Kg (mm/Kg [sic])
  Increased Blood Flow Volume in Femoral Artery: 37%
[7]; 1 mg/Kg (table prints mm/Kg), 1 mg/kg
  Duration Time: > 30 min
[7]; 1 mg/Kg (table prints mm/Kg), listed as Compound (2), 1 mg/kg
  Duration Time: more than 30 Min.

## CC(CNS(=O)(=O)c1cccc2cnccc12)NC(=N)N (stereo not drawn) [Compound 16, N-(2-Guanidinopropyl)-5-isoquinolinesulfonamide]
[5]
  EC50: 3 µM

## N=C(N)NCC(CCCNS(=O)(=O)c1cccc2cnccc12)Cc1ccccc1 (stereo not drawn) [Compound 38, N-(5-Guanidino-4-benzylpentyl)-5-isoquinolinesulfonamide]
[5]
  EC50: 11 µM

## CC(C)C(CNS(=O)(=O)c1cccc2cnccc12)NC(=N)N (stereo not drawn) [Compound 19, N-(2-Guanidino-3-methylbutyl)-5-isoquinolinesulfonamide]
[5]
  EC50: 15 µM

## CC(CCCCC(C)NS(=O)(=O)c1cccc2cnccc12)NC(=N)N (stereo not drawn) [Compound 43, N-(6-Guanidino-1-methylheptyl)-5-isoquinolinesulfonamide]
[3]; 1 mg/Kg (mm/Kg [sic])
  Increased Blood Flow Volume in Vertebral Artery: 68%
[4]; 1 (mm/Kg [sic])
  Average Decreased Blood Pressure: 15 mmHg
[5]
  EC50: 5 µM
[2]; [8]
  LD50: 66 mg/kg
[6]; 1 mg/Kg (mm/Kg [sic])
  Increased Blood Flow Volume in Femoral Artery: 32%
[7]; 1 mg/Kg (mm/Kg [sic])
  Duration Time: 25 min

## N=C(N)NC(CNS(=O)(=O)c1cccc2cnccc12)c1ccccc1 (stereo not drawn) [Compound 25, N-(2-Guanidino-2-phenylethyl)-5-isoquinolinesulfonamide]
[5]
  EC50: 10 µM

## CCC(CNC(=N)N)NS(=O)(=O)c1cccc2cnccc12 (stereo not drawn) [Compound 10, N-[(1-Guanidinomethyl)propyl]-5-isoquinolinesulfonamide]
[5]
  EC50: 5 µM

## CC(CNC(=N)N)CNS(=O)(=O)c1cccc2cnccc12 (stereo not drawn) [Compound 28, N-(3-Guanidino-2-methylpropyl)-5-isoquinolinesulfonamide]
[5]
  EC50: 3 µM

## CC(CCNS(=O)(=O)c1cccc2cnccc12)CNC(=N)N (stereo not drawn) [Compound 36, N-(4-Guanidino-3-methylbutyl)-5-isoquinolinesulfonamide]
[5]
  EC50: 5 µM
